Like-named read-outs stand apart in the source and are kept apart here.

Results on seven compounds are retold here after article PMC6199744, “Development of Chemical Proteomics for the Folateome and Analysis of the Kinetoplastid Folateome” (ACS Infectious Diseases, 2018).

Holding throughout (format): binding
In assay [1] the target is T1, HeLa cell extract proteins (Homo sapiens, UniProt O14744).
T1 construct: endogenous in cells; host or cells: HeLa cell extract

For assay [2], the target named is T2, HeLa cell extract proteins (Homo sapiens, UniProt O95486).
T2 construct: endogenous in cells; host or cells: HeLa cell extract
T2 sequence (O95486 1-1093): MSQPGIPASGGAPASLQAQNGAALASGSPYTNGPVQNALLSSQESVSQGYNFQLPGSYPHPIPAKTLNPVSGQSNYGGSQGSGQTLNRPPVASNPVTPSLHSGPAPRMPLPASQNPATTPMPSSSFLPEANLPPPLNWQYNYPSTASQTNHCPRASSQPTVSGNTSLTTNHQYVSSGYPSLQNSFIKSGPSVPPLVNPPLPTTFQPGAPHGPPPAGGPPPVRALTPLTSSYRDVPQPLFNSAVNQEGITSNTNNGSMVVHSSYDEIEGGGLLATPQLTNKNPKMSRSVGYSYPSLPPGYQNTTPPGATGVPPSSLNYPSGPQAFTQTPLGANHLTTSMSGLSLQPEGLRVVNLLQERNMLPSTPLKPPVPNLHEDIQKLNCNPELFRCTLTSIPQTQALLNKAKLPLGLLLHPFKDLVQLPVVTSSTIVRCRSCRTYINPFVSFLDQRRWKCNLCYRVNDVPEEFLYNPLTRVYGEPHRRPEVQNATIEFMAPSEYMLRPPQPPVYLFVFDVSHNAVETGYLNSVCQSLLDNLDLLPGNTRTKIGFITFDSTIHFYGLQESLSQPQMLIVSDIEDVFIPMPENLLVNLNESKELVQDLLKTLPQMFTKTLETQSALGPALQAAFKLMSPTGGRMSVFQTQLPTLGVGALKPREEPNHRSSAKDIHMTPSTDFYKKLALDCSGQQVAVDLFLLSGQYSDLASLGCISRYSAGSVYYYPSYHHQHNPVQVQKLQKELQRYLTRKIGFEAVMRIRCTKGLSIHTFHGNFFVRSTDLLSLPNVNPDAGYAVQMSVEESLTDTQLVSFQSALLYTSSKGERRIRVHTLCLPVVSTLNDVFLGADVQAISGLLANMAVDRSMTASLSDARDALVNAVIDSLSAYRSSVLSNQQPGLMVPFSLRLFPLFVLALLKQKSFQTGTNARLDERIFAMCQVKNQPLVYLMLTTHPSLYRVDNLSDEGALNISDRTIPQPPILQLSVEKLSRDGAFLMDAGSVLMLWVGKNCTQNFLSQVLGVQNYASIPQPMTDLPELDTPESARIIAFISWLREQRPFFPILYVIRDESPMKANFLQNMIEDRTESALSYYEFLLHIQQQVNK

Assay [3] deals with T3, HeLa cell extract proteins (Homo sapiens, UniProt P40227).
T3 construct: endogenous in cells; host or cells: HeLa cell extract

The target in assay [4] is T4, HeLa cell extract proteins (Homo sapiens, UniProt P49721).
T4 construct: endogenous in cells; host or cells: HeLa cell extract

Assay [5] has as its target T5, HeLa cell extract proteins (Homo sapiens, UniProt P60842).
T5 construct: endogenous in cells; host or cells: HeLa cell extract

Assay [6] has as its target T6, HeLa cell extract proteins (Homo sapiens, UniProt P63244).
T6 construct: endogenous in cells; host or cells: HeLa cell extract

In assay [7] the target is T7, HeLa cell extract proteins (Homo sapiens, UniProt Q15008).
T7 construct: endogenous in cells; host or cells: HeLa cell extract
T7 sequence (Q15008 1-389): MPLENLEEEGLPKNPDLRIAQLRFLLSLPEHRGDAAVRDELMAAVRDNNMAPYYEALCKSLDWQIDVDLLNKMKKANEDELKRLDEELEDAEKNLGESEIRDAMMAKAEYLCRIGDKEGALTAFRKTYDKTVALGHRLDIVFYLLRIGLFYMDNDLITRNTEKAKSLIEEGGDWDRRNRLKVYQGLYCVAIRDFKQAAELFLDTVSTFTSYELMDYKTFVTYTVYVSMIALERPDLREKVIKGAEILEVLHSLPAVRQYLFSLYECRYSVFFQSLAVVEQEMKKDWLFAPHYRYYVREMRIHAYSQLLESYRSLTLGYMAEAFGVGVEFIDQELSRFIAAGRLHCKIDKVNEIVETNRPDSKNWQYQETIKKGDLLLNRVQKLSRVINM

Assay [8] has as its target T8, HeLa cell extract proteins (Homo sapiens, UniProt Q9Y678).
T8 construct: endogenous in cells; host or cells: HeLa cell extract
T8 sequence (Q9Y678 1-874): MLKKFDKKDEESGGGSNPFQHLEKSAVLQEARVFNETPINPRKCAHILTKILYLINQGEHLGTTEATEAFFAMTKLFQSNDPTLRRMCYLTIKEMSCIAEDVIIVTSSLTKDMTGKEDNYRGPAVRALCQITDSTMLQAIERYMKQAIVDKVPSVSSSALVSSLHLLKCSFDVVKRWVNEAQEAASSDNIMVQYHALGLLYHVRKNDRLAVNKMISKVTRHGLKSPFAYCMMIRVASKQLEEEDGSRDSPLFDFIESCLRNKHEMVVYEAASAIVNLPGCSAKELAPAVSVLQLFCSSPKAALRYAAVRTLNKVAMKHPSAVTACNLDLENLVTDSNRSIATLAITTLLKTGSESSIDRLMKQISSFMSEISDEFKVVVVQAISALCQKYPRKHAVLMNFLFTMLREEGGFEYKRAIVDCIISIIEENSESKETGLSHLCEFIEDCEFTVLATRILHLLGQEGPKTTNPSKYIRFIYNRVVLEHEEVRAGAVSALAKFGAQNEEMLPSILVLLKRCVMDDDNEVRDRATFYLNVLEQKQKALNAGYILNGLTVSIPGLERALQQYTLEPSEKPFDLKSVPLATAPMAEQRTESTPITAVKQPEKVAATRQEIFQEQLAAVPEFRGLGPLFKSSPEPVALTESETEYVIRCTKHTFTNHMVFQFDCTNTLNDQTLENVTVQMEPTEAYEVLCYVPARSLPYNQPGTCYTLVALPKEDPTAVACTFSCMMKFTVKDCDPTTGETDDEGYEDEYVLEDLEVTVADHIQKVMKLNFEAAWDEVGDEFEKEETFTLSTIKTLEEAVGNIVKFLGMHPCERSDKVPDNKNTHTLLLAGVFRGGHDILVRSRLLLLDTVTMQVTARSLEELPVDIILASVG

T5 sequence (P60842 whole entry): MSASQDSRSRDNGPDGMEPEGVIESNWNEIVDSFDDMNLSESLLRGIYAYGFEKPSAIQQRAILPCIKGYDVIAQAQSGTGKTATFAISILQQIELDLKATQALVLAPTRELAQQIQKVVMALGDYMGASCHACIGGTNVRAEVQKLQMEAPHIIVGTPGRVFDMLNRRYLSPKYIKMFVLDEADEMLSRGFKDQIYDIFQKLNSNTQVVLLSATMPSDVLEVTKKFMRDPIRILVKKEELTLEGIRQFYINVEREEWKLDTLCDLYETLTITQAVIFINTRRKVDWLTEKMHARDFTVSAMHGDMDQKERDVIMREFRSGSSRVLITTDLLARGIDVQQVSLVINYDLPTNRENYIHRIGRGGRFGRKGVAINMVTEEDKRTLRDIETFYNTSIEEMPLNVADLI
T3 sequence (P40227 whole entry): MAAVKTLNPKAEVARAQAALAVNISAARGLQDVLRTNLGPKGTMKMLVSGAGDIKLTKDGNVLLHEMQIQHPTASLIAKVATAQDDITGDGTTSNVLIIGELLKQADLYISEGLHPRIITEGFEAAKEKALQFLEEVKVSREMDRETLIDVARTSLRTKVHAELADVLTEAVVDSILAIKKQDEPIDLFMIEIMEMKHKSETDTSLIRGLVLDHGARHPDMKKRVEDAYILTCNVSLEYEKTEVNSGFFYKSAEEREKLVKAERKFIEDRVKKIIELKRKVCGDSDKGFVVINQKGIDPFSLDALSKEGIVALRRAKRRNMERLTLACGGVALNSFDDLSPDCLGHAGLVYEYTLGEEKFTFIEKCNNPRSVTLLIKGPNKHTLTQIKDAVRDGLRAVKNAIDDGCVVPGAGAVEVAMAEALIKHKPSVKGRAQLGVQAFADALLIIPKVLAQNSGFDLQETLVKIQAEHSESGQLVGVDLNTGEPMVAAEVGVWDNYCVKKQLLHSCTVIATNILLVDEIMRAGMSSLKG
T1 sequence (O14744 whole entry): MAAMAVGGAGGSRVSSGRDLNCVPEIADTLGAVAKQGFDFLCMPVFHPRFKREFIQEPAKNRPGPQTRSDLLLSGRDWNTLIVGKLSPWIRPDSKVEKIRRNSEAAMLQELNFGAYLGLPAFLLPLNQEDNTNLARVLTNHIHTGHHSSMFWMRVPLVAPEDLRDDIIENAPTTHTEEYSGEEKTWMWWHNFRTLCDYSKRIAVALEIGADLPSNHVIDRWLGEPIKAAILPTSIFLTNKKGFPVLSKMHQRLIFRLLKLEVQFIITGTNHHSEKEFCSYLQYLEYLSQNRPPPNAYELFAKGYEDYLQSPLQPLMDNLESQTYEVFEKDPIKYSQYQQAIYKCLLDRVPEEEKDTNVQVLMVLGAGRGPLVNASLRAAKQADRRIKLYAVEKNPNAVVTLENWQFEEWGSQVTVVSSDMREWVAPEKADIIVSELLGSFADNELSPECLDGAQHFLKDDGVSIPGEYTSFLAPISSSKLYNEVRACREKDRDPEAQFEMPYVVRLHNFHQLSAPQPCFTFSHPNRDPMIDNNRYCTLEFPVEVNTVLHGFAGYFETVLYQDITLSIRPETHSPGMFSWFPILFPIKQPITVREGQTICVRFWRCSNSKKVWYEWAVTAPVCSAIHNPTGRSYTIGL
T4 sequence (P49721 whole entry): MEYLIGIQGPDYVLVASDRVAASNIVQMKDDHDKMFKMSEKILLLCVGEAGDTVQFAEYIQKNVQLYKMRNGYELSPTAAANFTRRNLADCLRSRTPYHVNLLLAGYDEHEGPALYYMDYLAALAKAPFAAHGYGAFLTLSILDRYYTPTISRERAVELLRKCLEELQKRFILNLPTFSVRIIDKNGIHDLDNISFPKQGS

On to `Nc1nc2cccc(-c3ccccc3)c2n1Cc1ccc(Cl)c(Cl)c1` [compound 3], for which the “fold changes relative to vehicle control” value in assay [1] (protein PRMT5, HeLa) was 0.85; in assay [2] (protein SEC24A, HeLa) it was 1.03; in assay [3] (protein CCT6A, HeLa), 1.04; in assay [4] (HeLa, protein PSMB2), 1.07; in assay [5] (protein EIF4A1, HeLa) it was 0.8; in assay [6] (HeLa, protein GNB2L1) it was 1.12. In addition, the “fold changes relative to vehicle control” value amounted to 1.72 in assay [7] (protein PSMD6, HeLa) and 1.14 in assay [8] (protein COPG, HeLa).
Take `NCCOCCOCC(=O)Nc1nc2ncc(CNc3ccc(C(=O)NC(CCC(=O)O)C(=O)O)cc3)nc2c(=O)[nH]1` (centres unmarked) [compound 6]: the “fold changes relative to vehicle control” value in assay [1] (protein PRMT5, HeLa) is listed as 1.21; in assay [2] (HeLa, protein SEC24A) it was 1.03; in assay [3] (HeLa, protein CCT6A) it was 1.19; in assay [4] (HeLa, captured protein PSMB2) it was 1.03; in assay [5] (HeLa, protein EIF4A1), 1.27; in assay [6] (HeLa, protein GNB2L1), 1.12. For the same compound, the “fold changes relative to vehicle control” value in assay [7] (HeLa, protein PSMD6) is given as 0.89; in assay [8] (protein COPG, HeLa), 1.03.
`Nc1nc2[nH]cc(CCc3ccc(C(=O)N[C@@H](CCC(=O)O)C(=O)O)cc3)c2c(=O)[nH]1` [PTX, pemetrexed]: the “fold changes relative to vehicle control” value in assay [1] is given as 0.99; in assay [2] it was 1.03; in assay [3], 1.11; in assay [4] it was 1.13; in assay [5] it was 1.07; in assay [6] it was 1.08. Also, the “fold changes relative to vehicle control” value in assay [7] was found to be 0.69; in assay [8] it was 0.95.
`Nc1nc2c(c(=O)[nH]1)N(C=O)C(CNc1ccc(C(=O)N[C@@H](CCC(=O)O)C(=O)O)cc1)CN2` (some centres unmarked) [LEU, leucovorin]: the “fold changes relative to vehicle control” value in assay [1] (protein PRMT5, HeLa) turned out to be 0.96; in assay [2] (HeLa, protein SEC24A), 1.02; in assay [3] (HeLa, protein CCT6A) it was 1.01; in assay [4] (HeLa, captured protein PSMB2), 1.2; in assay [5] (HeLa, protein EIF4A1), 0.99; in assay [6] (HeLa, protein GNB2L1) it was 1.08. The “fold changes relative to vehicle control” value amounted to 0.77 in assay [7] (HeLa, protein PSMD6) and 0.91 in assay [8] (protein COPG, HeLa).
Consider `CCCCCCOc1ccc(Cc2cnc(N)nc2N)cc1` [compound 1], for which the “fold changes relative to vehicle control” value worked out at 0.93 in assay [1] (protein PRMT5, HeLa); 1.15 in assay [2] (protein SEC24A, HeLa); 1.39 in assay [3] (protein CCT6A, HeLa); 1.03 in assay [4] (HeLa, protein PSMB2); 1.12 in assay [5] (protein EIF4A1, HeLa); 1.12 in assay [6] (HeLa, protein GNB2L1). Further, the “fold changes relative to vehicle control” value in assay [7] (protein PSMD6, HeLa) came out at 0.94; in assay [8] (protein COPG, HeLa) it was 0.93.
For `NCCCNc1ccc(C(=O)NC(CCC(=O)O)C(=O)O)cc1` (centres unmarked) [compound 7], the “fold changes relative to vehicle control” value in assay [1] (protein PRMT5, HeLa) amounted to 1.05; in assay [2] (HeLa, protein SEC24A), 1.01; in assay [3] (HeLa, protein CCT6A), 1.31; in assay [4] (HeLa, captured protein PSMB2), 1.07; in assay [5] (HeLa, protein EIF4A1) it was 0.89; in assay [6] (HeLa, protein GNB2L1), 0.99. The “fold changes relative to vehicle control” value stood at 0.82 in assay [7] (HeLa, protein PSMD6) and 1.03 in assay [8] (protein COPG, HeLa).
In the case of `CCCCCCOc1cccc(Cc2cnc(N)nc2N)c1` [compound 2], the “fold changes relative to vehicle control” value in assay [1] (protein PRMT5, HeLa) came out at 1.12; in assay [2] (protein SEC24A, HeLa) it was 1.44; in assay [3] (protein CCT6A, HeLa), 2.04; in assay [4] (HeLa, protein PSMB2) it was 1.24; in assay [5] (protein EIF4A1, HeLa), 1.75; in assay [6] (HeLa, protein GNB2L1), 1.19. The “fold changes relative to vehicle control” value was determined as 1.64 in assay [7] (protein PSMD6, HeLa) and 1.39 in assay [8] (protein COPG, HeLa).
